Experimental data as given in the kinase profiling compilation of Christmann-Franck et al. (2016).

Tests used:
Assay in all cases: radiometric filter-binding kinase assay, Kinase HotSpot
Settings in all cases: compound 0.5 µM; ATP 10 µM
[1] = target: ABL2 (human) (UniProt P42684)
[2] = target: AKT1 (human) (UniProt P31749)
[3] = target: AURKA (human) (UniProt O14965)
[4] = target: BRSK2 (human) (UniProt Q8IWQ3)
[5] = target: CAMKK1 (human) (UniProt Q8N5S9)
[6] = target: CAMKK2 (human) (UniProt Q96RR4)
[7] = target: CDC42BPA (human) (UniProt Q5VT25)
[8] = target: CDK2 CCNA2 (human) (UniProt P24941+P20248)
[9] = target: CDK4 CCND1 (human) (UniProt P24385+P11802)
[10] = target: CDK4 CCND3 (human) (UniProt P30281+P11802)
[11] = target: DDR2 (human) (UniProt Q16832)
DDR2 (human), sequence (Q16832 whole entry, looked up): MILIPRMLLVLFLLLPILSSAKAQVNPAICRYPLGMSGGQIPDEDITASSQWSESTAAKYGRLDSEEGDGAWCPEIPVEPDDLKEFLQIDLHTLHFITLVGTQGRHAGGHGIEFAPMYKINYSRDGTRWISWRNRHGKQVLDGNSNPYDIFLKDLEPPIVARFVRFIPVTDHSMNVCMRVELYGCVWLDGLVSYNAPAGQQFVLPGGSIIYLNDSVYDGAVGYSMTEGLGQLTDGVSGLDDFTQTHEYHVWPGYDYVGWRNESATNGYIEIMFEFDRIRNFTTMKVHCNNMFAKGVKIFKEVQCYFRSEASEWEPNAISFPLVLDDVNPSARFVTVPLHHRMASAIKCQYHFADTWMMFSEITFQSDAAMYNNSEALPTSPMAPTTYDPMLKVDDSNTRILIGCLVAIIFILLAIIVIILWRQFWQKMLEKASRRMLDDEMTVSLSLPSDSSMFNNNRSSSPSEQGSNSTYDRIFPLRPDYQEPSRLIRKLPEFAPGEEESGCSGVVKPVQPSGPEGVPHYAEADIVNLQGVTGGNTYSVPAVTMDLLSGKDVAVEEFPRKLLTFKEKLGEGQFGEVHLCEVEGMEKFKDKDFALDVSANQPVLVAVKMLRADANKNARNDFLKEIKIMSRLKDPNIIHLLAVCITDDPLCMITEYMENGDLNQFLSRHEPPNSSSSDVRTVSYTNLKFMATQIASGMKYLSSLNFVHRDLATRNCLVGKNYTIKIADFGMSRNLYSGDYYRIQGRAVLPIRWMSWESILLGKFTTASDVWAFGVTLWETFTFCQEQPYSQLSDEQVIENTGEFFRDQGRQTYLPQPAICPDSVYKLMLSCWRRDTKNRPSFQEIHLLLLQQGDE

[12] = target: IKBKB (human) (UniProt O14920)
[13] = target: IKBKE (human) (UniProt Q14164)
[14] = target: MAP2K1 (human) (UniProt Q02750)
[15] = target: MAP3K2 (human) (UniProt Q9Y2U5)
[16] = target: MAP3K7 TAB1 (human) (UniProt O43318+Q15750)
MAP3K7 TAB1 (human), sequence (O43318 whole entry, looked up): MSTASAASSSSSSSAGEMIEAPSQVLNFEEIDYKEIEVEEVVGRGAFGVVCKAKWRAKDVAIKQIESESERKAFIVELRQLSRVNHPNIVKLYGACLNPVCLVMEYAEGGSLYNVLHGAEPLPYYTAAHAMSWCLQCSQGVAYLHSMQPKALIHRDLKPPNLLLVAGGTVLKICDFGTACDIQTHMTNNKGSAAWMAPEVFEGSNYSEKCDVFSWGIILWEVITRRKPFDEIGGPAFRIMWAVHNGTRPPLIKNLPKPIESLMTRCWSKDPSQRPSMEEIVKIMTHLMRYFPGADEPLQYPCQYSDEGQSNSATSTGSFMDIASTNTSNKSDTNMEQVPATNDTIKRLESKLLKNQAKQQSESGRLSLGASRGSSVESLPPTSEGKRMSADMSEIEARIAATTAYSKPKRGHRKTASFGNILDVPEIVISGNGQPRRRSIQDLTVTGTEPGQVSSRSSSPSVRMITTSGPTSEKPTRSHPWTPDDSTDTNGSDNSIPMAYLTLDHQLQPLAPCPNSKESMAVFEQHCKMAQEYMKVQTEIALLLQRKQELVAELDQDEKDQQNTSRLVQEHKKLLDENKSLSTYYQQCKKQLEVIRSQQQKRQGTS
MAP3K7 TAB1 (human), sequence (Q15750 whole entry, looked up): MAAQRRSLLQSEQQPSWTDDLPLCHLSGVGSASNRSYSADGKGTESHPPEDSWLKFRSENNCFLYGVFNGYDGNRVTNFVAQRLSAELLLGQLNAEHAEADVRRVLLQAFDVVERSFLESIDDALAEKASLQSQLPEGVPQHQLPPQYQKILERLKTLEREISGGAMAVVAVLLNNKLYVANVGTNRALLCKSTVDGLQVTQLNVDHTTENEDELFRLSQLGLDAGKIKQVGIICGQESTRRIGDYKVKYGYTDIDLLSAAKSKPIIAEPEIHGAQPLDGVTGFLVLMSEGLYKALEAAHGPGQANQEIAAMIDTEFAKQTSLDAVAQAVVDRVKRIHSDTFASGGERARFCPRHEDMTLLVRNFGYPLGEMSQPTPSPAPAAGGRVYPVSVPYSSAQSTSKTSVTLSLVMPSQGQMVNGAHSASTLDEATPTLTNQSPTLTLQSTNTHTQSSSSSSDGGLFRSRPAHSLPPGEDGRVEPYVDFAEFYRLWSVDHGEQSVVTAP

[17] = target: MAPKAPK2 (human) (UniProt P49137)
[18] = target: MARK1 (human) (UniProt Q9P0L2)
[19] = target: MARK2 (human) (UniProt Q7KZI7)
MARK2 (human), sequence (Q7KZI7 whole entry, looked up): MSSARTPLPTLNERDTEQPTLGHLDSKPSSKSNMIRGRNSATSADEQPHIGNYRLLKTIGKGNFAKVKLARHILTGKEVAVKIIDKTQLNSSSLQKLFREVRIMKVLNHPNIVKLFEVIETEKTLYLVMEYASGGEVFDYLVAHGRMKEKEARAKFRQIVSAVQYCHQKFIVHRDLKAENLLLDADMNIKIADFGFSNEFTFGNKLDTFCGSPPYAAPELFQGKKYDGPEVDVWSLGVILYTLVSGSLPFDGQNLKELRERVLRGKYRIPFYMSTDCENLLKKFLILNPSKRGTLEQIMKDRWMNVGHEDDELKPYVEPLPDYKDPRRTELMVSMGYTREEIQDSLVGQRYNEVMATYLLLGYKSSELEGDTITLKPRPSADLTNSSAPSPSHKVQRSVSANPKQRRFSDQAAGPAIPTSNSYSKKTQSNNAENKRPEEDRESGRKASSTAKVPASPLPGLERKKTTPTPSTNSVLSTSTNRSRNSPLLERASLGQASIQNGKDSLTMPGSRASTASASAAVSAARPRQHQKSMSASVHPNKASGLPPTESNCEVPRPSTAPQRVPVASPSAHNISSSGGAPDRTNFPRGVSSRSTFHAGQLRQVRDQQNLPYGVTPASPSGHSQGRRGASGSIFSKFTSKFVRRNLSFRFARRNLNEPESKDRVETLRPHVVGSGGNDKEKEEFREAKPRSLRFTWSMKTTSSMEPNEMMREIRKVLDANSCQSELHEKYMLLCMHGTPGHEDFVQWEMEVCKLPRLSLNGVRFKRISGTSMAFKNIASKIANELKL

[20] = target: MATK (human) (UniProt P42679)
[21] = target: MELK (human) (UniProt Q14680)
[22] = target: MKNK2 (human) (UniProt Q9HBH9)
[23] = target: NEK2 (human) (UniProt P51955)
[24] = target: NTRK3 (human) (UniProt Q16288)
NTRK3 (human), sequence (Q16288 whole entry, looked up): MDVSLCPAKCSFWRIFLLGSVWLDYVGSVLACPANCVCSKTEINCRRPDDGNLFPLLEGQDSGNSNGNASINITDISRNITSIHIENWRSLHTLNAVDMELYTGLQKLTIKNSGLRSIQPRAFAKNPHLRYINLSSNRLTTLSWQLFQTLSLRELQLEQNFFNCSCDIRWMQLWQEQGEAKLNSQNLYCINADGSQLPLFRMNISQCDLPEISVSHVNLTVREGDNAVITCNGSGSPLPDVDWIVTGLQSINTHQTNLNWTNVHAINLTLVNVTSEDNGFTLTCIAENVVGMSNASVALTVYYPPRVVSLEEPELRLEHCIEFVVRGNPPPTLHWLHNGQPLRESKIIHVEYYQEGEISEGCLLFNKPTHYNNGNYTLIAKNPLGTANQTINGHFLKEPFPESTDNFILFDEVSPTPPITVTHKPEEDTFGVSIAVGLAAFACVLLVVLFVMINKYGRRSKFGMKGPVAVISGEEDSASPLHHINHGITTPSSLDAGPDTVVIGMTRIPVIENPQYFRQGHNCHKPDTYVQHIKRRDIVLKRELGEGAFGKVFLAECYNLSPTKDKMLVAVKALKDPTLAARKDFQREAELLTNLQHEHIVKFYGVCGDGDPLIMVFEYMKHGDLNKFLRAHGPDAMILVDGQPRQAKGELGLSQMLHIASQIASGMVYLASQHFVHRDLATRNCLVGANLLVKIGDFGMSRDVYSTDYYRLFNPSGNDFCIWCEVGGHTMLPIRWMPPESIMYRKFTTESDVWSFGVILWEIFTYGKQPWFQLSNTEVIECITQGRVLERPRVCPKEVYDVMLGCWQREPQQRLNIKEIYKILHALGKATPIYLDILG

[25] = target: PAK2 (human) (UniProt Q13177)
[26] = target: PAK4 (human) (UniProt O96013)
[27] = target: PAK7 (human) (UniProt Q9P286)
[28] = target: PHKG2 (human) (UniProt P15735)
[29] = target: PRKCE (human) (UniProt Q02156)
[30] = target: PRKCH (human) (UniProt P24723)
PRKCH (human), sequence (P24723 whole entry, looked up): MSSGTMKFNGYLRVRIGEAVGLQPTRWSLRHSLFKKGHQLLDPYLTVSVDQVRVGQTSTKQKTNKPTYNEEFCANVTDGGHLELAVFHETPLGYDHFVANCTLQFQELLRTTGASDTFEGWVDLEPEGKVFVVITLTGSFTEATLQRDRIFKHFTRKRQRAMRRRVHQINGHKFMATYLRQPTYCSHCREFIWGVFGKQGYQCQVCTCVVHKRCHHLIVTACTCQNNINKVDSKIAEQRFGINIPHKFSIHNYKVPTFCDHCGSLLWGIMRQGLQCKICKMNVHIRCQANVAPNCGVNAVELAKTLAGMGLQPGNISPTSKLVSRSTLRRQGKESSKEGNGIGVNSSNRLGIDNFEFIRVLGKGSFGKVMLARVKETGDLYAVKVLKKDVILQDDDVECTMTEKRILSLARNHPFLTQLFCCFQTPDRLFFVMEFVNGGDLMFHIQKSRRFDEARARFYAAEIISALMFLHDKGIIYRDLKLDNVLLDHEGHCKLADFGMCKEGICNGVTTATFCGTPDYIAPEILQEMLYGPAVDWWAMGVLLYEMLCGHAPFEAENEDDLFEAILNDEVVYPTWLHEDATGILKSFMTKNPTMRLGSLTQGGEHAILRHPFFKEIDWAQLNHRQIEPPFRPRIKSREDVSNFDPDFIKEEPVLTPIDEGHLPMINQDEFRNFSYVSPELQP

[31] = target: PRKD2 (human) (UniProt Q9BZL6)
[32] = target: ROCK1 (human) (UniProt Q13464)
[33] = target: RPS6KA1 KD1 KD2 (human) (UniProt Q15418)
[34] = target: RPS6KB1 (human) (UniProt P23443)
[35] = target: SIK2 (human) (UniProt Q9H0K1)
[36] = target: STK17A (human) (UniProt Q9UEE5)
[37] = target: STK3 (human) (UniProt Q13188)
[38] = target: TYK2 JH1 catalytic (human) (UniProt P29597)
[39] = target: VRK1 (human) (UniProt Q99986)
[40] = target: WNK2 (human) (UniProt Q9Y3S1)
[41] = target: YES1 (human) (UniProt P07947)
YES1 (human), sequence (P07947 whole entry, looked up): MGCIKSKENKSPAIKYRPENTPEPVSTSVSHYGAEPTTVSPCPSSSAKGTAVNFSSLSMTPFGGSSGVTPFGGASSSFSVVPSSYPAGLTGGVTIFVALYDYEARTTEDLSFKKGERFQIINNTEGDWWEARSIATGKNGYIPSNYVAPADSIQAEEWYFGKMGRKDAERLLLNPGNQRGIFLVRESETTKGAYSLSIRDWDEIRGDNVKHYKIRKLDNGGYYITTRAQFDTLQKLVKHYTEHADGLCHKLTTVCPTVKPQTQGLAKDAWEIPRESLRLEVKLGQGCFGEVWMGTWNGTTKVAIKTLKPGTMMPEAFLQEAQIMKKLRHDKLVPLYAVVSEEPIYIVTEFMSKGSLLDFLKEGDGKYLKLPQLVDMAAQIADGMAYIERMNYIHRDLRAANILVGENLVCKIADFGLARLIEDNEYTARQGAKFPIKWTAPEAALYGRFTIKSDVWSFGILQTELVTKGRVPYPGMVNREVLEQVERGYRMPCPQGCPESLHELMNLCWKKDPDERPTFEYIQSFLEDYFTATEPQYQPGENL

Question: How did the residual activity [1] turn out when `Cn1sc(=O)n(Cc2ccccc2)c1=O` was run?
Answer: Its residual activity is 96.7%.

Question: What about the residual activity [2] of the same molecule?
Answer: The residual activity was 101%.

Question: What about the residual activity [3] of the same molecule?
Answer: Its residual activity is 104%.

Question: And the residual activity [4]?
Answer: The residual activity was 99.4%.

Question: And the residual activity [5]?
Answer: The residual activity was 114%.

Question: And the residual activity [6]?
Answer: Its residual activity is 95.2%.

Question: What about the residual activity [7] of the same molecule?
Answer: The residual activity was 94%.

Question: What about the residual activity [8] of the same molecule?
Answer: The residual activity was 100%.

Question: What about the residual activity [9] of the same molecule?
Answer: Its residual activity is 98.2%.

Question: And the residual activity [10]?
Answer: The residual activity was 114%.

Question: And the residual activity [11]?
Answer: Its residual activity is 102%.

Question: What about the residual activity [12] of the same molecule?
Answer: The residual activity was 112%.

Question: And the residual activity [13]?
Answer: Its residual activity is 96.4%.

Question: What about the residual activity [14] of the same molecule?
Answer: Its residual activity is 83.8%.

Question: And the residual activity [15]?
Answer: The residual activity was 94.7%.

Question: What about the residual activity [16] of the same molecule?
Answer: The residual activity was 105%.

Question: What about the residual activity [17] of the same molecule?
Answer: Its residual activity is 102%.

Question: And the residual activity [18]?
Answer: Its residual activity is 107%.

Question: And the residual activity [19]?
Answer: Its residual activity is 118%.

Question: And the residual activity [20]?
Answer: Its residual activity is 95.3%.

Question: And the residual activity [21]?
Answer: Its residual activity is 99.3%.

Question: And the residual activity [22]?
Answer: Its residual activity is 92.1%.

Question: What about the residual activity [23] of the same molecule?
Answer: Its residual activity is 99.7%.

Question: What about the residual activity [24] of the same molecule?
Answer: The residual activity was 107%.

Question: What about the residual activity [25] of the same molecule?
Answer: Its residual activity is 104%.

Question: And the residual activity [26]?
Answer: Its residual activity is 104%.

Question: What about the residual activity [27] of the same molecule?
Answer: The residual activity was 81.1%.

Question: And the residual activity [28]?
Answer: Its residual activity is 90.6%.

Question: And the residual activity [29]?
Answer: Its residual activity is 94.8%.

Question: And the residual activity [30]?
Answer: The residual activity was 89%.

Question: And the residual activity [31]?
Answer: Its residual activity is 95.1%.

Question: What about the residual activity [32] of the same molecule?
Answer: Its residual activity is 94.6%.

Question: What about the residual activity [33] of the same molecule?
Answer: Its residual activity is 97.6%.

Question: And the residual activity [34]?
Answer: The residual activity was 98%.

Question: And the residual activity [35]?
Answer: The residual activity was 98.6%.

Question: And the residual activity [36]?
Answer: The residual activity was 101%.

Question: And the residual activity [37]?
Answer: Its residual activity is 93.2%.

Question: What about the residual activity [38] of the same molecule?
Answer: Its residual activity is 96%.

Question: And the residual activity [39]?
Answer: The residual activity was 94.2%.

Question: And the residual activity [40]?
Answer: Its residual activity is 99.1%.

Question: What about the residual activity [41] of the same molecule?
Answer: The residual activity was 96.3%.

Question: Which results are given for `Oc1ccc(Nc2nc(-c3ccc(Cl)cc3)cs2)cc1`?
Answer: residual activity [1]: 93.4%; residual activity [2]: 106%; residual activity [3]: 89.4%; residual activity [4]: 101%; residual activity [5]: 124%; residual activity [6]: 101%; residual activity [7]: 87.1%; residual activity [8]: 98.6%; residual activity [9]: 108%; residual activity [10]: 108%; residual activity [11]: 94.1%; residual activity [12]: 104%; residual activity [13]: 95.9%; residual activity [14]: 90.7%; residual activity [15]: 92.1%; residual activity [16]: 95.3%; residual activity [17]: 100%; residual activity [18]: 93.7%; residual activity [19]: 102%; residual activity [20]: 95.6%; residual activity [21]: 100%; residual activity [22]: 84.5%; residual activity [23]: 110%; residual activity [24]: 102%; residual activity [25]: 87%; residual activity [26]: 102%; residual activity [27]: 105%; residual activity [28]: 99.9%; residual activity [29]: 99.6%; residual activity [30]: 96.3%; residual activity [31]: 102%; residual activity [32]: 103%; residual activity [33]: 97.7%; residual activity [34]: 104%; residual activity [35]: 90.7%; residual activity [36]: 98.7%; residual activity [37]: 114%; residual activity [38]: 110%; residual activity [39]: 99.8%; residual activity [40]: 101%; residual activity [41]: 99.2%
